Experiments:
Assay type in all cases: cell-based
Gaeumannomyces graminis = Gaeumannomyces graminis / liquid culture (take-all of cereals); conditions: growth inhibition photometrically 4-5 days after application, compared to untreated control
Method: (§1) 6. Gaeumannomyces Graminis/Liquid Culture (Take-all of Cereals) Mycelial fragments of the fungus from cryogenic storage were directly mixed into nutrient broth (PDB potato dextrose broth). After placing a (DMSO) solution of test compound into a microtiter plate (96-well format), the nutrient broth containing the fungal spores is added. The test plates are incubated at 24° C. and the inhibition of growth is determined photometrically 4-5 days after application.

[1] = test system: Monographella nivalis (Microdochium nivale); assay: Monographella nivalis (Microdochium nivale) / liquid culture (foot rot cereals); conditions: growth inhibition photometrically 4-5 days after application, compared to untreated control
Method: as §1, with “8. Monographella nivalis (Microdochium nivale)/Liquid” for “6. Gaeumannomyces Graminis/Liquid”, “(Foot Rot” for “(Take-all of”, “Conidia” for “Mycelial fragments”, “are” for “were”

[2] = test system: Mycosphaerella graminicola (Septoria tritici); assay: Mycosphaerella graminicola (Septoria tritici) / liquid culture (Septoria blotch); conditions: Zymoseptoria tritici, growth inhibition photometrically 4-5 days after application, compared to untreated control
Method: as §1, with “18. Mycosphaerella graminicola (Septoria tritici)/Liquid” for “6. Gaeumannomyces Graminis/Liquid”, “(Septoria Blotch) Conidia” for “(Take-all of Cereals) Mycelial fragments”, “are” for “were”

[3] = test system: Glomerella lagenarium (Colletotrichum lagenarium); assay: Glomerella lagenarium (Colletotrichum lagenarium) / liquid culture (anthracnose); conditions: Colletotrichum orbiculare, growth inhibition photometrically 3-4 days after application, compared to untreated control
Method: as §1, with “3. Glomerella lagenarium (Colletotrichum lagenarium)/Liquid” for “6. Gaeumannomyces Graminis/Liquid”, “(Anthracnose) Conidia” for “(Take-all of Cereals) Mycelial fragments”, “are” for “were”, “measured” for “determined”, “3-4” for “4-5”

Pythium ultimum = Pythium ultimum / liquid culture (seedling damping off); conditions: Globisporangium ultimum, growth inhibition photometrically 2-3 days after application, compared to untreated control
Method: 15. Pythium ultimum/Liquid Culture (Seedling Damping Off) Mycelia fragments and oospores of a newly grown liquid culture of the fungus are directly mixed into nutrient broth (PDB potato dextrose broth). After placing a (DMSO) solution of test compound into a microtiter plate (96-well format), the nutrient broth containing the fungal mycelia/spore mixture is added. The test plates are incubated at 24° C. and the inhibition of growth is determined photometrically 2-3 days after application.

SMILES	inhibition of growth at 20 ppm (Gaeumannomyces graminis) [%]	inhibition of growth at 20 ppm [1] [%]	inhibition of growth at 20 ppm [2] [%]	inhibition of growth at 20 ppm [3] [%]	inhibition of growth at 20 ppm (Pythium ultimum) [%]
COc1c(C(=O)OCC(F)(F)F)ccc2c1B(O)OC2 [Compound 10, 2,2,2-trifluoroethyl 1-hydroxy-7-methoxy-3H-2,1-benzoxaborole-6-carboxylate]	≥ 80	≥ 80	≥ 80	≥ 80	≥ 80
COc1c(C(=O)Oc2ccc(C#N)cc2)ccc2c1B(O)OC2 [Compound 14, (4-cyanophenyl) 1-hydroxy-7-methoxy-3H-2,1-benzoxaborole-6-carboxylate]	≥ 80				≥ 80
COc1c(C(=O)OCC(OC)c2ccccc2)ccc2c1B(O)OC2 (centres unmarked) [Compound 75, (2-methoxy-2-phenyl-ethyl) 1-hydroxy-7-methoxy-3H-2,1-benzoxaborole-6-carboxylate]	≥ 80	≥ 80			≥ 80
COc1c(C(=O)OCC2CCC=CO2)ccc2c1B(O)OC2 (centres unmarked) [Compound 77, 3,4-dihydro-2H-pyran-2-ylmethyl 1-hydroxy-7-methoxy-3H-2,1-benzoxaborole-6-carboxylate]	≥ 80	≥ 80			≥ 80
COc1c(C(=O)OCC#Cc2ccc(Cl)cc2)ccc2c1B(O)OC2 [Compound 80, 3-(4-chlorophenyl)prop-2-ynyl 1-hydroxy-7-methoxy-3H-2,1-benzoxaborole-6-carboxylate]	≥ 80	≥ 80			≥ 80
COc1c(C(=O)OCCOc2ccc(Cl)cc2)ccc2c1B(O)OC2 [Compound 81, 2-(4-chlorophenoxy)ethyl 1-hydroxy-7-methoxy-3H-2,1-benzoxaborole-6-carboxylate]	≥ 80	≥ 80			≥ 80
COc1c(C(=O)OCCOc2ccccc2C)ccc2c1B(O)OC2 [Compound 82, 2-(2-methylphenoxy)ethyl 1-hydroxy-7-methoxy-3H-2,1-benzoxaborole-6-carboxylate]	≥ 80	≥ 80	≥ 80	≥ 80	≥ 80
COc1c(C(=O)OCc2ncc(Cl)cc2F)ccc2c1B(O)OC2 [Compound 87, (5-chloro-3-fluoro-2-pyridyl)methyl 1-hydroxy-7-methoxy-3H-2,1-benzoxaborole-6-carboxylate]	≥ 80				≥ 80
COc1c(C(=O)OCc2cccc(C(F)(F)F)c2)ccc2c1B(O)OC2 [Compound 88, [3-(trifluoromethyl)phenyl]methyl 1-hydroxy-7-methoxy-3H-2,1-benzoxaborole-6-carboxylate]	≥ 80	≥ 80			≥ 80
COC(=O)Nc1ccc(COC(=O)c2ccc3c(c2OC)B(O)OC3)cc1 [Compound 90, [4-(methoxycarbonylamino)phenyl]methyl 1-hydroxy-7-methoxy-3H-2,1-benzoxaborole-6-carboxylate]	≥ 80	≥ 80			≥ 80
COc1c(C(=O)OC(C)c2cc(C(F)(F)F)n[nH]2)ccc2c1B(O)OC2 (centres unmarked) [Compound 91, 1-[3-(trifluoromethyl)-1H-pyrazol-5-yl]ethyl 1-hydroxy-7-methoxy-3H-2,1-benzoxaborole-6-carboxylate]	≥ 80				≥ 80
COc1c(C(=O)OCc2c(Cl)cc(O)cc2Cl)ccc2c1B(O)OC2 [Compound 92, (2,6-dichloro-4-hydroxy-phenyl)methyl 1-hydroxy-7-methoxy-3H-2,1-benzoxaborole-6-carboxylate]	≥ 80	≥ 80			≥ 80
COc1c(C(=O)OCCON=C(C)C)ccc2c1B(O)OC2 [Compound 93, 2-(isopropylideneamino)oxyethyl 1-hydroxy-7-methoxy-3H-2,1-benzoxaborole-6-carboxylate]	≥ 80				≥ 80
COc1c(C(=O)OCC(C)(C)c2nnc(S)nc2O)ccc2c1B(O)OC2 [Compound 95, [2-(5-hydroxy-3-sulfanyl-1,2,4-triazin-6-yl)-2-methyl-propyl] 1-hydroxy-7-methoxy-3H-2,1-benzoxaborole-6-carboxylate]	≥ 80	≥ 80			≥ 80
COc1c(C(=O)OCc2nc(C)cs2)ccc2c1B(O)OC2 [Compound 96, (4-methylthiazol-2-yl)methyl 1-hydroxy-7-methoxy-3H-2,1-benzoxaborole-6-carboxylate]	≥ 80	≥ 80			≥ 80
COc1c(C(=O)OCn2cnc(Cl)c2Cl)ccc2c1B(O)OC2 [Compound 97, (4,5-dichloroimidazol-1-yl)methyl 1-hydroxy-7-methoxy-3H-2,1-benzoxaborole-6-carboxylate]	≥ 80				≥ 80
CCCC1OCC(C)(COC(=O)c2ccc3c(c2OC)B(O)OC3)CO1 (centres unmarked) [Compound 98, (5-methyl-2-propyl-1,3-dioxan-5-yl)methyl 1-hydroxy-7-methoxy-3H-2,1-benzoxaborole-6-carboxylate]	≥ 80	≥ 80			≥ 80
CCOC(=O)CC(OC(=O)c1ccc2c(c1OC)B(O)OC2)C(F)(F)F (centres unmarked) [Compound 101, [3-ethoxy-3-oxo-1-(trifluoromethyl)propyl] 1-hydroxy-7-methoxy-3H-2,1-benzoxaborole-6-carboxylate]	≥ 80				≥ 80
COc1c(C(=O)OCCn2nc(C)cc2OC(C)=O)ccc2c1B(O)OC2 [Compound 102, 2-(5-acetoxy-3-methyl-pyrazol-1-yl)ethyl 1-hydroxy-7-methoxy-3H-2,1-benzoxaborole-6-carboxylate]	≥ 80				≥ 80
COc1c(C(=O)OC2CC=CC2)ccc2c1B(O)OC2 [Compound 104, cyclopent-3-en-1-yl 1-hydroxy-7-methoxy-3H-2,1-benzoxaborole-6-carboxylate]	≥ 80	≥ 80	≥ 80	≥ 80	≥ 80
COc1c(C(=O)OCc2cc(C)cc(C)c2)ccc2c1B(O)OC2 [Compound 116, (3,5-dimethylphenyl)methyl 1-hydroxy-7-methoxy-3H-2,1-benzoxaborole-6-carboxylate]	≥ 80	≥ 80			≥ 80
COc1c(C(=O)OCc2cc(Cl)ccc2Cl)ccc2c1B(O)OC2 [Compound 120, (2,5-dichlorophenyl)methyl 1-hydroxy-7-methoxy-3H-2,1-benzoxaborole-6-carboxylate]	≥ 80				
C#CC(CC)OC(=O)c1ccc2c(c1OC)B(O)OC2 (centres unmarked) [Compound 121, 1-ethylprop-2-ynyl 1-hydroxy-7-methoxy-3H-2,1-benzoxaborole-6-carboxylate]	≥ 80	≥ 80		≥ 80	≥ 80
CCOC(=O)[C@H](C)OC(=O)c1ccc2c(c1OC)B(O)OC2 [Compound 125, [(1S)-2-ethoxy-1-methyl-2-oxo-ethyl] 1-hydroxy-7-methoxy-3H-2,1-benzoxaborole-6-carboxylate]	≥ 80	≥ 80			≥ 80
COc1ccc(COC(=O)c2ccc3c(c2OC)B(O)OC3)cc1 [Compound 127, (4-methoxyphenyl)methyl 1-hydroxy-7-methoxy-3H-2,1-benzoxaborole-6-carboxylate]	≥ 80	≥ 80		≥ 80	≥ 80
COc1ccccc1COC(=O)c1ccc2c(c1OC)B(O)OC2 [Compound 128, (2-methoxyphenyl)methyl 1-hydroxy-7-methoxy-3H-2,1-benzoxaborole-6-carboxylate]	≥ 80	≥ 80			≥ 80
